Measurements: PubChem BioAssay (NCI)
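Cultured in 96-well plates, cells were exposed to test compound for 48 hours across five concentrations. Definition used: TGI = concentration required for complete inhibition of growth.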

How the values were obtained:
Experiment in all cases: NCI-60 cell line screen, 48 h
EKVX NSCLC = test system: EKVX NSCLC
CCRF-CEM leukemia = test system: CCRF-CEM leukemia
RXF 393 renal = test system: RXF 393 renal
NCI-H226 lung = test system: NCI-H226 lung
SK-MEL-2 melanoma = test system: SK-MEL-2 melanoma
DMS 273 small cell lung = test system: DMS 273 small cell lung
HOP-92 NSCLC = test system: HOP-92 NSCLC
DMS 114 small cell lung = test system: DMS 114 small cell lung

CC1=NN(c2ccccc2)C(=O)C12[C@H](c1ccccc1)C2(C#N)C#N (some centres undefined)
TGI (EKVX NSCLC): 33.6 µM
TGI (CCRF-CEM leukemia): 2.78 µM
TGI (RXF 393 renal): 14.6 µM
TGI (NCI-H226 lung): 26.3 µM
TGI (SK-MEL-2 melanoma): 16.7 µM
TGI (DMS 273 small cell lung): 6.28 µM
TGI (HOP-92 NSCLC): 7.81 µM

O=C(c1ccccc1)c1nnn(Cc2ccccc2Cn2nnc(C(=O)c3ccccc3)c2C(=O)c2ccccc2)c1C(=O)c1ccccc1
TGI (EKVX NSCLC): > 100 µM
TGI (CCRF-CEM leukemia): > 100 µM
TGI (DMS 114 small cell lung): > 100 µM
TGI (NCI-H226 lung): > 100 µM
TGI (SK-MEL-2 melanoma): > 100 µM
TGI (DMS 273 small cell lung): > 100 µM
TGI (HOP-92 NSCLC): > 100 µM

CCC1CCCCN1CC(C(C)=O)C(c1ccccc1)c1c(O)c2ccccc2oc1=O (centres undefined)
TGI (EKVX NSCLC): > 100 µM
TGI (CCRF-CEM leukemia): > 100 µM
TGI (RXF 393 renal): > 100 µM
TGI (DMS 114 small cell lung): > 100 µM
TGI (NCI-H226 lung): > 100 µM
TGI (SK-MEL-2 melanoma): > 100 µM
TGI (DMS 273 small cell lung): > 100 µM

C=CCC12CC(=O)CCC1c1ccc(OC)cc1C2=O (centres undefined)
TGI (EKVX NSCLC): > 100 µM
TGI (CCRF-CEM leukemia): > 100 µM
TGI (RXF 393 renal): > 100 µM
TGI (DMS 114 small cell lung): > 100 µM
TGI (NCI-H226 lung): > 100 µM
TGI (SK-MEL-2 melanoma): > 100 µM
TGI (DMS 273 small cell lung): > 100 µM
TGI (HOP-92 NSCLC): > 100 µM

CC(/C=C/C(=O)c1sc(C(N)=S)nc1C)=C\c1ccccc1
TGI (EKVX NSCLC): > 100 µM
TGI (CCRF-CEM leukemia): > 100 µM
TGI (RXF 393 renal): > 100 µM
TGI (DMS 114 small cell lung): 35 µM
TGI (NCI-H226 lung): > 100 µM
TGI (SK-MEL-2 melanoma): > 100 µM
TGI (DMS 273 small cell lung): 45.5 µM
TGI (HOP-92 NSCLC): > 100 µM

Cc1cc(=O)[nH]c(NNC(C#N)c2ccccc2O)n1 (centres undefined)
TGI (CCRF-CEM leukemia): > 100 µM
TGI (RXF 393 renal): > 100 µM
TGI (DMS 114 small cell lung): 60.9 µM
TGI (NCI-H226 lung): 84.2 µM
TGI (SK-MEL-2 melanoma): > 100 µM
TGI (DMS 273 small cell lung): > 100 µM
TGI (HOP-92 NSCLC): > 100 µM

Cc1ccc(N2C(=O)/C(=C/c3ccc(N(CCC#N)CCC#N)cc3)N=C2COc2ccc(Cl)cc2Cl)cc1
TGI (EKVX NSCLC): > 100 µM
TGI (CCRF-CEM leukemia): > 100 µM
TGI (RXF 393 renal): > 100 µM
TGI (DMS 114 small cell lung): > 100 µM
TGI (NCI-H226 lung): > 100 µM
TGI (SK-MEL-2 melanoma): > 100 µM

O=C1C(Cl)=C(Cl)C(=O)N1c1ccc(Cl)c(Cl)c1Cl
TGI (EKVX NSCLC): > 100 µM
TGI (CCRF-CEM leukemia): 45.6 µM
TGI (DMS 114 small cell lung): > 100 µM
TGI (NCI-H226 lung): > 100 µM
TGI (SK-MEL-2 melanoma): > 100 µM
TGI (DMS 273 small cell lung): > 100 µM
TGI (HOP-92 NSCLC): 88.5 µM

Brc1cc(C2OCCCO2)ccc1OCc1ccccc1
TGI (EKVX NSCLC): > 100 µM
TGI (CCRF-CEM leukemia): > 100 µM
TGI (RXF 393 renal): > 100 µM
TGI (DMS 114 small cell lung): > 100 µM
TGI (NCI-H226 lung): > 100 µM
TGI (SK-MEL-2 melanoma): > 100 µM
TGI (DMS 273 small cell lung): > 100 µM
TGI (HOP-92 NSCLC): > 100 µM

CCOC(=O)c1sc2c(C(=O)OCC)n3cc(C)cc(C)c3c2c1O
TGI (EKVX NSCLC): 90 µM
TGI (CCRF-CEM leukemia): > 100 µM
TGI (RXF 393 renal): > 100 µM
TGI (DMS 114 small cell lung): > 100 µM
TGI (NCI-H226 lung): > 100 µM
TGI (SK-MEL-2 melanoma): > 100 µM
TGI (DMS 273 small cell lung): > 100 µM
TGI (HOP-92 NSCLC): > 100 µM

CCCC(O)c1cn(-c2cccc(S(=O)(=O)O)c2)nn1 (centres undefined)
TGI (EKVX NSCLC): > 100 µM
TGI (CCRF-CEM leukemia): > 100 µM
TGI (RXF 393 renal): > 100 µM
TGI (DMS 114 small cell lung): > 100 µM
TGI (NCI-H226 lung): > 100 µM
TGI (SK-MEL-2 melanoma): > 100 µM
TGI (DMS 273 small cell lung): > 100 µM
TGI (HOP-92 NSCLC): > 100 µM

COc1ccc(Br)c(CN2CCc3ccccc32)c1OS(=O)(=O)c1ccc(C)cc1
TGI (EKVX NSCLC): > 100 µM
TGI (CCRF-CEM leukemia): > 100 µM
TGI (RXF 393 renal): 65.7 µM
TGI (DMS 114 small cell lung): 53.5 µM
TGI (NCI-H226 lung): > 100 µM
TGI (SK-MEL-2 melanoma): > 100 µM
TGI (HOP-92 NSCLC): > 100 µM

CCOC(=O)[C@@]12C(C)=CC(=O)O[C@]1(C)C1C(=O)NC(=O)C12 (some centres undefined)
TGI (EKVX NSCLC): > 100 µM
TGI (CCRF-CEM leukemia): > 100 µM
TGI (RXF 393 renal): > 100 µM
TGI (DMS 114 small cell lung): > 100 µM
TGI (NCI-H226 lung): > 100 µM
TGI (SK-MEL-2 melanoma): > 100 µM
TGI (DMS 273 small cell lung): > 100 µM
TGI (HOP-92 NSCLC): > 100 µM

CN1CCN=C1c1nnn(-c2ccc([N+](=O)[O-])cc2)c1-c1ccccc1
TGI (EKVX NSCLC): > 100 µM
TGI (CCRF-CEM leukemia): 59 µM
TGI (RXF 393 renal): > 100 µM
TGI (DMS 114 small cell lung): > 100 µM
TGI (NCI-H226 lung): > 100 µM
TGI (SK-MEL-2 melanoma): > 100 µM
TGI (DMS 273 small cell lung): > 100 µM
TGI (HOP-92 NSCLC): 94.5 µM
